According to paper PMC7823449 (Antioxidants, 2020):

Tests used:
[1] = target: T1, bovine serum albumin (BSA) (Bos taurus, UniProt P02769); assay: Anti-glycation activity, AGEs formation through Maillard reaction (BSA + D-fructose); assay type: biochemical; details: samples 400 μg/mL, BSA 10 mg/mL + D-fructose 0.5 M, pH 7.4, 37 °C, 7 days; values only in Figure 8
T1 construct: purchased Sigma-Aldrich S.r.l; (Milan, Italy)
Experimental: Protein model bovine serum albumin (BSA) (10 mg/mL) incubated with D-fructose (0.5 M) in phosphate buffer 50 mM, pH 7.4 and NaN3 0.02% was used as positive control. BSA alone was the negative control while aminoguanidine (AMG) (400 μg/mL) was used as a reference. Final glycated BSA solutions (300 μL), alone and with samples (400 μg/mL), were incubated at 37 °C in 96-well microtiter closed with their silicon lids for 7 days. The inhibition of fluorescence was determined using a Wallac Victor 1420 Multilabel Counters fluorimeter (PerkinElmer, Waltham, MA, USA) (λexc 370 nm; λem 440 nm). Relative fluorescence units (RFU) were recorded and the percentage of AGEs formation inhibition was calculated as follows (Equation (3)): % of inhibition = {1 − (RFU sample/RFU Positive control)} × 100 (3)
Each experiment was performed in triplicate and data were expressed as mean ± SD Statistical analysis of the results was performed using Student’s t-test (p < 0.05).

[2] = Oxygen Radical Absorbance Capacity (ORAC) assay; assay type: biochemical; details: samples 100 μg/mL properly diluted, AAPH 100 mM, fluorescein 10 nM, 37 °C, pH 7.0; values only in Figure 7
Experimental: The ORAC assay determined the fluorescence decrease of fluorescein (10 nM) after its oxidation in the presence of AAPH and the investigated samples (100 μg/mL) properly diluted, as previously reported [46, 47]. The assays were carried out at 37 °C, pH 7.0 recording fluorescence through a Wallac Victor 1420 Multilabel Counters fluorimeter (PerkinElmer, Waltham, MA, USA) (excitation λ = 540 nm, emission λ = 570 nm). Trolox (12.5 μM) and phosphate buffer were used as control standard and blank, respectively. The area under the quenching curve of fluorescein was used to calculate ORAC value of the investigated compounds using Origin®7 (OriginLab Corporation, Northampton, USA). ORAC Units, expressed as trolox micromole per microgram of sample (μmol/μg), were obtained according to Equation (2): ORAC value (μmol/μg) = K(S sample − S blank)/(S Trolox − S blank) (2) where K is the sample dilution factor, S the area under the fluorescence decay curve of sample, trolox or blank. Each experiment was performed in triplicate and data were expressed as mean ± SD

[3] = Chemical stability (chemical hydrolysis) at different pH and temperature, HPLC of residual RSVTR; assay type: physicochemical; details: dark
Experimental: The chemical hydrolysis of RSVTR was studied at pH 2.0 (0.2 N HCI), 6.8 and 7.2 (phosphate buffer solutions). All solutions containing the same amount of RSVTR (1.18 µM) were kept in the dark at a constant temperature of 37 °C, 22 °C, and 5 °C. At appropriate time intervals, chosen to obtain enough data to pinpoint the stability profile (0, 2, 4, 8, 24, 48, 72, 96, 168, 696 h at pH 7.2; 0, 2, 4, 8, 24, 48, 72, 96, 192, 528, 768 h at pH 6.8; 0, 2, 4, 8, 24, 48, 72, 96, 528 h at pH 2.0), samples were withdrawn and analyzed immediately by HPLC for the residual RSVTR.
Pseudo-first-order rate constants were determined from the slope of the linear portion of the graph obtained, plotting the logarithm of the residual amount of RSVTR against time. RSVTR half-life (t1/2) was calculated according to Equation (1): t1/2 = […] (1) where k is the pseudo-first-order rate constant.
RSVTR was analyzed using an isocratic binary mobile phase consisting of 5% of acetonitrile and 95% of triethylamine 0.3% (v/v) in water (pH adjusted to 3.0 with trifluoroacetic acid). The flow rate was set at 1.0 mL/min and the column was maintained at 24 °C throughout the analysis. Chromatograms were acquired at 290 nm after analyzing RSVTR UV spectra in the range 200–400 nm and the retention time of RSVTR was approximately 5.40 min. The analytical method was validated according to ICH guidelines.

T1 sequence (P02769 25-607): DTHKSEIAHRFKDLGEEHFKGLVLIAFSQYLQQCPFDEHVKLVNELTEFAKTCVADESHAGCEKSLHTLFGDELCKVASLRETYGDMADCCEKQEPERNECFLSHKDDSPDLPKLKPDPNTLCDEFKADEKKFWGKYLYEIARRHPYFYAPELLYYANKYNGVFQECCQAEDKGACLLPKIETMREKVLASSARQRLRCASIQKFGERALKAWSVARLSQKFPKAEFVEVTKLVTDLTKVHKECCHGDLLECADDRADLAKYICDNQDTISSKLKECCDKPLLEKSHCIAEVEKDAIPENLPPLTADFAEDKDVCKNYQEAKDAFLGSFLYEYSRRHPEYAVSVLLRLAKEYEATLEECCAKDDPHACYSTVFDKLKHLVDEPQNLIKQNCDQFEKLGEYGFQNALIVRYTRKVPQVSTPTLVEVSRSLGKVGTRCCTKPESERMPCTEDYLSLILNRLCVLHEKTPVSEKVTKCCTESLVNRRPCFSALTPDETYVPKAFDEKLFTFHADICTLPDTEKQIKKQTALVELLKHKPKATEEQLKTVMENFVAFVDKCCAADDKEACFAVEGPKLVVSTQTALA

## Cc1c(C)c2c(c(C)c1O)CCC(C)(C(=O)Oc1ccc(/C=C/c3cc(OC(=O)C4(C)CCc5c(C)c(O)c(C)c(C)c5O4)cc(OC(=O)C4(C)CCc5c(C)c(O)c(C)c(C)c5O4)c3)cc1)O2 (stereo not drawn) [RSVTR]
[1]
  Anti-glycation activity (inhibition of AGEs formation), result in words: better anti-glycation agent than RSV
[2]
  Antioxidant activity (ORAC), result in words: lower antioxidant capacity
other
  melting point: 113 to 116 °C
[3]; 0.2 N HCl solution, pH 2, pH 2.0 (0.2 N HCl), 5 °C
  half-life at 1.18 µM: 19.2 days
[3]; 0.2 N HCl solution, pH 2, pH 2.0 (0.2 N HCl), 22 °C
  half-life at 1.18 µM: 8.25 days
[3]; 0.2 N HCl solution, pH 2, pH 2.0 (0.2 N HCl), 37 °C
  half-life at 1.18 µM: 5.54 days
[3]; phosphate buffer, pH 6.8, pH 6.8 phosphate buffer, 5 °C
  half-life at 1.18 µM: 48.1 days
[3]; phosphate buffer, pH 6.8, pH 6.8 phosphate buffer, 22 °C
  half-life at 1.18 µM: 36.1 days
[3]; phosphate buffer, pH 6.8, pH 6.8 phosphate buffer, 37 °C
  half-life at 1.18 µM: 28.9 days
[3]; phosphate buffer, pH 7.2, pH 7.2 phosphate buffer, 5 °C
  half-life at 1.18 µM: 72.2 days
[3]; phosphate buffer, pH 7.2, pH 7.2 phosphate buffer, 22 °C
  half-life at 1.18 µM: 28.9 days
[3]; phosphate buffer, pH 7.2, pH 7.2 phosphate buffer, 37 °C
  half-life at 1.18 µM: 12.5 days
